The text below walks through data of patent publication US20250123282A1, “METHODS FOR EVALUATION AND TREATMENT OF TYROSINE KINASE INHIBITOR (TKI)-RESISTANT ACUTE MYELOID LEUKEMIA” (LOMA LINDA UNIVERSITY, priority 2021, published 2025).

The structures appear in SMILES notation.

The subject of this assay is primary AML BMMNC. The assay can be described thus: Ex vivo combination treatment of primary AML BMMNC (FACS, imaging, qPCR). Type of assay: cell-based, human. As to conditions: 80 nM GILT. The protocol:
Whether targeting the MIF-CXCR2 signaling pathway would effectively treat AML blasts were investigated. First, the combination of GILT with ribosomal protein S19 (RPS19) on MV4-11 blasts was tested in vitro. RPS19, a MIF inhibitor, has been reported to suppress cisplatin-activated MIF-CD74-NFκB signaling pathway in acute kidney injury. […] The combination of 80 nM GILT with 50 uM SB225002, a CXCR2-inhibitor (CXCR2-I) on MV4-11 blasts in vitro were examined. […] The anti-leukemic effect of combining GILT with CXCR2-I on primary BMMNC ex vivo were examined. […] There may be alternative cytokine pathways compensating for the defect of MIF-CXCR2 pathways.
The combination of 80 nM GILT and 50 uM BAY11-7821 (a NFκB-I) was tested as a novel therapeutic approach for AML.
Next, the anti-leukemic effect of the combination was examined on primary BMMNC from refractory AML patients (Patient #7, Table 4).
Human Samples. AML bone marrow (BM) mononuclear cells (BMMNC) (Patients #1-7, Table 4) were obtained from the City of Hope National Medical Center (COHNMC). All donor patients signed an informed consent form. Sample acquisition was approved by the Institutional Review Boards at the LLUMC and the COHNMC in accordance with an assurance filed with and approved by the Department of Health and Human Services, and it met all requirements of the Declaration of Helsinki.
For MIF in vitro experiments, different doses of MIF were added to 1 ml of 1×10^6 MV4-11 cells or RAW264.7 cells for each experimental group in 24-well plates. Two days after the one dose treatment, cells were then collected for either analyses by FACS and qPCR. As combination agents to treat blasts in vitro or ex vivo, one dose of 80 nM GILT with one dose of different inhibitors were added to 1 ml of 1×10^6 MV4-11 cells or 1 ml of 0.5-1×10^6 primary AML BMMNC for each experimental group in 24-well plates. Dose-dependent experiments of CXCR2 inhibitor and NFκB inhibitor with or without 80 nM GILT were performed. […] Three days after the one dose treatment, cells were then collected for either analyses by FACS and qPCR.
Flow Cytometry (FACS). Cells were harvested and examined for the expression of cell surface biomarkers (CD) and intracellular proteins by multichromatic FACS as previously described. About 1×10^4˜10^6 cells in 100 μl FACS buffer (PBS containing 1% FBS and 0.05% sodium azide) were stained with various fluorescence-conjugated antibodies specific for the desired cell surface proteins at 4° C. for 30 min. The surface-stained cells were then fixed and permeabilized using the appropriate reagents (e.g. the BD Pharmingen Cytofix/Cytoperm buffer) and stained with different fluorescence-conjugated antibodies specific for the desired intracellular proteins at 4° C. for 2 hours in the permeabilizing buffer (e.g. the BD Perm/Wash buffer). Concentrations of the Abs were used per the manufacturers' recommendations. Finally, the cells were washed twice in the permeabilizing buffer and twice in the FACS buffer before being analyzed on the BD FACSAria II. Data was analyzed using the FlowJo software (Tree Star Inc., Ashland, OR).
RNA Isolation and Real-Time Polymerase Chain Reaction (qPCR) analysis. MV4-11 and MOLM-14 cells were cultured with the presence of TKI drugs for 72 hours or re-plated 28 days after the treatment of TKI drugs. Cells were isolated for RNA isolation and qPCR analysis as previously described. Total RNA was isolated using the RNeasy Micro Kit (Qiagen) according to the manufacturer's instruction. First-strand cDNA was synthesized using the SuperScript III Reverse Transcriptase (Invitrogen; Life Technologies). With an Applied Biosystems 7900HT Real-Time PCR machine, qPCR was performed and analyzed using known primers for the specific markers. The PCR conditions were 10 minutes at 95° C. followed by 40 cycles of 10 seconds at 95° C. and 15 seconds at 60° C. The relative expression level of a gene was determined using the ΔΔCt method and normalized to GAPDH.
For orientation: Quantitative PCR measures a nucleic acid by following its amplification.

[1] abbreviates: newly diagnosed AML, Patient #5, 50 uM BAY11-7821.
The mark [2] stands for this setting: primary BMMNC ex vivo (Patient #2 and #3), 50 uM CXCR2-I.

For `CCc1nc(C(N)=O)c(Nc2ccc(N3CCC(N4CCN(C)CC4)CC3)c(OC)c2)nc1NC1CCOCC1` [GILT, Gilteritinib], under setting [1], the “percentage of Ki67+CD33+ proliferating blasts” value worked out at 73.3% and the “percentage of viable CD33+CD13+ primary blasts” value is 35.8%. Further, under setting [2], the “percentage of Ki67+CD13+ blasts” value turned out to be 60% and the “percentage of viable CD33+CD13+ primary blasts” value was 7.14%.
